Measured values: US11339165B2, “Pyrazolopyrimidines having activity against the respiratory syncytial virus (RSV)” (priority 2017, dated 2022)
Read-outs that look alike come from different tables or passages of the source.

Tests used:
rgRSV224 virus = test: Antiviral activity: rgRSV224 (GFP) replication in HeLa cells; format: cell-based, respiratory syncytial virus (RSV)
[1] = Pharmacokinetics after single intravenous administration in the fasted male Beagle dog; format: in vivo; settings: intravenous administration at 1 mg/kg in dogs, first 8 hours after administration
Description: E.2 Pharmacokinetics after Single Intravenous Administration in the Fasted Male Beagle Dog
The test compound was dissolved in a 20% (w/v) hydroxypropyl-β-cyclodextrin (HP-beta-CD) solution at a final concentration of 2 mg/mL for the intravenous formulation. NaOH was added to the formulations to facilitate dissolution and after total dissolution the pH was adjusted with HCl to 8.4. The intravenous (IV) formulation was made isotonic with mannitol. Prior to dosing, all formulations were stored at room temperature and protected from light. The IV formulation was dosed in a cephalic vein at 0.5 mL/kg to obtain a final dose of 1 mg/kg.
Three male Beagle dogs, with a mean weight of 10.9±1.1 kg, were used. A complete concentration time profile was obtained from each individual animal. Prior to dosing, animals were fasted overnight. Their standard dry diet was returned to them at 2 hours post dose. Tap water was available ad libitum.
From each individual animal, blood samples were taken at 7 and 20 minutes, 1, 2, 4, 7, 24 and 48 hours after intravenous dose administration. […] Plasma samples were analysed using a qualified research LC-MS/MS method. The key analytical performance (linearity, upper and lower limit of quantification, accuracy and precision) of the method was reported together with the plasma concentrations. The lower limit of quantification (LLOQ) was 10.0 ng/mL. […]

in vitro = settings: human, TOX HELA CC50 (μM)
Description: (§1) Black 384-well clear-bottom microtiter plates (Corning, Amsterdam, The Netherlands) were filled via acoustic drop ejection using the echo liquid handler (Labcyte, Sunnyvale, Calif.). 200 nL of compound stock solutions (100% DMSO) were transferred to the assay plates. 9 serial 4-fold dilutions of compound were made, creating per quadrant the same compound concentration. The assay was initiated by adding 10 μL of culture medium to each well (RPMI medium without phenol red, 10% FBS-heat inactivated, 0.04% gentamycin (50 mg/mL). All addition steps are done by using a multidrop dispenser (Thermo Scientific, Erembodegem, Belgium). Next, rgRSV224 virus (MOI=1) diluted in culture medium was added to the plates. rgRSV224 virus is an engineered virus that includes an additional GFP gene (Hallak L K, Spillmann D, Collins P L, Peeples M E. Glycosaminoglycan sulfation requirements for respiratory syncytial virus infection; Journal of virology (2000), 74(22), 10508-13) and was in-licensed from the NIH (Bethesda, Md., USA). Finally, 20 μL of a HeLa cell suspension (3,000 cells/well) were plated. Medium, virus- and mock-infected controls were included in each test. The wells contain 0.05% DMSO per volume. Cells were incubated at 37° C. in a 5% CO2 atmosphere. Three days post-virus exposure, viral replication was quantified by measuring GFP expression in the cells by an in house developed MSM laser microscope (Tibotec, Beerse, Belgium). The EC50 was defined as the 50% inhibitory concentration for GFP expression. In parallel, compounds were incubated for three days in a set of white 384-well microtiter plates (Corning) and the cytotoxicity of compounds in HeLa cells was determined by measuring the ATP content of the cells using the ATPlite kit (Perkin Elmer, Zaventem, Belgium) according to the manufacturer's instructions. The CC50 was defined as the 50% concentration for cytotoxicity.

HeLa cells [2] = test system: HeLa cells
Description: as §1

[3] = Cytotoxicity in HeLa cells (ATP content, ATPlite kit); settings: human
Description: as §1

HeLa cells [4] = test: as above; settings: read-out: TOX HELA CC50; HeLa cells, three days incubation, ATP content
Description: as §1

[5] = human respiratory syncytial virus, HeLa, 72 h, read-out: RSV HELA EC50 (μM), rgRSV224 virus (MOI=1), HeLa cells, GFP expression three days post-virus exposure
[6] = rgRSV224 virus (MOI=1), HeLa cells, GFP expression three days post-virus exposure, read-out: RSV HELA EC50

Row | SMILES | EC50 (rgRSV224 virus; [5]) | melting point | CC50 at 3 days (in vitro) | further results
1 | CNC(=O)[C@H]1CCN(c2ccc(-c3cc4nc(C(=O)N5CCc6ccccc6[C@H]5C)cc(C5CC5)n4n3)c(F)c2)C1 [Compound 37, (3S)-1-(4-{7-Cyclopropyl-5-[(1R)-1-methyl-1,2,3,4-tetrahydroisoquinoline-2-carbonyl]pyrazolo[1,5-a]pyrimidin-2-yl}-3-fluorophenyl)-N-methylpyrrolidine-3-carboxamide] | 0.019 µM | 123.18 °C | 62 µM | plasma concentration profile [1]: does not show this rapid decline
2 | C[C@@H]1c2ccccc2CCN1C(=O)c1cc(C2CC2)n2nc(-c3ccc(N4CCC(O)(CO)C4)cc3F)cc2n1 (single isomer, unassigned) [Compound 104] | – | – | – | EC50 (rgRSV224 virus; read-out: RSV HELA EC50, rgRSV224 virus (MOI=1), HeLa cells, GFP expression three days post-virus exposure): 0.025 µM; CC50 (HeLa cells [2]; human, 3 days): 28200 nM
3 | C[C@@H]1c2ccccc2CCN1C(=O)c1cc(C2CC2)n2nc(-c3ccc(N4CC[C@@H](NP(C)(C)=O)C4)cc3F)cc2n1 [Compound 30, (1R)-2-(7-Cyclopropyl-2-{4-[(3R)-3-[(dimethylphosphoryl)amino]pyrrolidin-1-yl]-2-fluorophenyl}pyrazolo[1,5-a]pyrimidine-5-carbonyl)-1-methyl-1,2,3,4-tetrahydro-isoquinoline] | 0.036 µM | – | – | CC50 at 3 days [3]: 33900 nM
4 | C[C@@H]1c2ccccc2CCN1C(=O)c1cc(C2CC2)n2nc(-c3ccc(N4C[C@@H](C(N)=O)C[C@@H]4C)cc3F)cc2n1 (relative stereo) [Compound 35, (3*S,5*S)-1-(4-{7-cyclopropyl-5-[(1R)-1-methyl-1,2,3,4-tetrahydroisoquinoline-2-carbonyl]pyrazolo[1,5-a]pyrimidin-2-yl}-3-fluorophenyl)-5-methylpyrrolidine-3-carboxamide] | – | – | – | EC50 (rgRSV224 virus; [6]): 0.033 µM; CC50 (HeLa cells [2]): 25500 nM
5 | C[C@@H]1c2ccccc2CCN1C(=O)c1cc(C2CC2)n2nc(-c3ccc(N4C[C@@H](C(N)=O)C[C@H]4C)cc3F)cc2n1 (relative stereo) [Compound 34, (3*S,5*R)-1-(4-{7-cyclopropyl-5-[(1R)-1-methyl-1,2,3,4-tetrahydroisoquinoline-2-carbonyl]pyrazolo[1,5-a]pyrimidin-2-yl}-3-fluorophenyl)-5-methylpyrrolidine-3-carboxamide] | – | – | – | EC50 (rgRSV224 virus; [6]): 0.037 µM; CC50 (HeLa cells [4]): 23100 nM
6 | C[C@@H]1c2ccccc2CCN1C(=O)c1cc(C2CC2)n2nc(-c3ccc(N4C[C@H](O)[C@@H](O)C4)cc3F)cc2n1 [Compound 102, (7-cyclopropyl-2-(4-((3S,4S)-3,4-dihydroxypyrrolidin-1-yl)-2-fluorophenyl)pyrazolo[1,5-a]pyrimidin-5-yl)((R)-1-methyl-3,4-dihydroisoquinolin-2(1H)-yl)methanone] | 0.026 µM | – | 44.4 µM | plasma concentration profile [1]: does not show this rapid decline
7 | C[C@@H]1c2ccccc2CCN1C(=O)c1cc(C2CC2)n2nc(-c3ccc(N4CC[C@H](NP(C)(C)=O)C4)cc3F)cc2n1 [Compound 31, (1R)-2-(7-Cyclopropyl-2-{4-[(3S)-3-[(dimethylphosphoryl)amino]pyrrolidin-1-yl]-2-fluorophenyl}pyrazolo[1,5-a]pyrimidine-5-carbonyl)-1-methyl-1,2,3,4-tetrahydro-isoquinoline] | 0.036 µM | – | – | CC50 at 3 days [3]: 39100 nM
8 | CNC(=O)[C@H]1CCN(c2cc(F)c(-c3cc4nc(C(=O)N5CCc6ccccc6[C@H]5C)cc(C5CC5)n4n3)cn2)C1 [Compound 53, (3S)-1-(5-{7-Cyclopropyl-5-[(1R)-1-methyl-1,2,3,4-tetrahydroisoquinoline-2-carbonyl]-pyrazolo[1,5-a]pyrimidin-2-yl}-4-fluoropyridin-2-yl)-N-methylpyrrolidine-3-carboxamide] | 0.035 µM | 228.33 °C | > 100 µM | –
9 | C[C@@H]1c2ccccc2CCN1C(=O)c1cc(-c2ccccn2)n2nc(-c3ccc(N4CC[C@H](C(N)=O)C4)cc3F)cc2n1 [Compound 84, (3S)-1-(3-Fluoro-4-{5-[(1R)-1-methyl-1,2,3,4-tetrahydroisoquinoline-2-carbonyl]-7-(pyridin-2-yl)pyrazolo[1,5-a]pyrimidin-2-yl}phenyl)pyrrolidine-3-carboxamide] | 0.006 µM | 252.18 °C | 19 µM | –
10 | C[C@@H]1c2cc(F)ccc2CCN1C(=O)c1cc(C2CC2)n2nc(-c3ccc(N4CC[C@H](C(N)=O)C4)cc3F)cc2n1 (single isomer, unassigned) [Compound 47, (3S)-1-(4-{7-Cyclopropyl-5-[(1*R)-7-fluoro-1-methyl-1,2,3,4-tetrahydroisoquinoline-2-carbonyl]pyrazolo[1,5-a]pyrimidin-2-yl}-3-fluorophenyl)pyrrolidine-3-carboxamide] | 0.009 µM | 245.69 °C | 41.5 µM | –
